Results: US7759313B2, “Induction method for cell differentiation” (Obschetstvo S Ogranichennoi Otvetstvennostiyu …, priority 2002, dated 2010)
Where “and” joins values, the source holds several entries; their conditions need not be identical. Equal values may be shown once. Read-outs that look alike come from different tables or passages of the source.

Experiments:
[1] = Hematological toxicity according to WHO in ovarian cancer patients; assay type: in vivo, human
Method: The effect of Dicarbamine was studied in 13 patients with stage III-IV ovarian cancer who underwent 77 courses of the chemotherapy according to the scheme: 400 mg/m^2 Carboplatin i.v. drop-wise, once +600 mg/m^2 Cyclophosphan i.v. drop-wise, once; the courses were repeated in 28 days. Dicarbamine was prescribed daily at dose 100 mg orally after meals beginning 5 days prior to the first course and then for three weeks. Dosing duration was 26 days, course dose being 2600 mg. Dicarbamine was given again 5 days prior to the second chemotherapy course, and dosing was continued for 21 days. Total duration of Dicarbamine intake during two the chemotherapy courses was 52 days.
Hematological toxicity (leukopenia, neutropenia, thrombocytopenia) was assessed in 13 patients who received 77 courses of the chemotherapy with Dicarbamine as compared with the group of 7 patients who received 25-27 courses of the chemotherapy without Dicarbamine (control).

[2] = system: human melanoma; assay: Number of cells with melanin in inoculated human melanoma (Goryaev's chamber); assay type: in vivo; conditions: 4.5 mg/kg p.o. daily for 3 weeks
Method: Mice with subcutaneously inoculated human melanoma as described in Example 1 were daily p.o. dosed with Dicarbamine at a higher single dose (4.5 mg/kg for 3 weeks from the moment of the tumor transplantation).
Animals were sacrificed three weeks after the tumor transplantation. By the time of sacrifice, the volume of the tumors was on average 150 mm^3. Following sacrifice, the tumors were excised from the mice and disintegrated with Versen solution, and the cell fraction containing cells with pigment was isolated. The number of cells with pigment was calculated in the Goryaev's chamber using light microscopy.

[3] = system: hematopoietic cells of the bone marrow; assay: Electronic microscopy of bone marrow of ovarian cancer patients during chemotherapy; assay type: in vivo, human; conditions: Cyclophosphane 600 mg/m^2 + Carboplatin 400 mg/m^2 along with Dicarbamine 100 mg
Method: The patients were divided into two equal groups: group I—patients who received the chemotherapy alone and group II—patients who received the chemotherapy along with Dicarbamine administration. […] The average chemotherapy course of one patient included 6 courses without Dicarbamine and 5.7 courses with Dicarbamine. In group II patients received the chemotherapy along with Dicarbamine dosing at a single dose 100 mg beginning 5 days before the first course and then until the beginning of next course at the same dose. […] Puncture biopsy of the bone marrow and peripheral blood for electronic microscopy were taken from patients prior to the chemotherapy and at the end of treatment course with Dicarbamine or without it. Fresh bone marrow puncture biopsies were placed on a slide plate and stirred many times with a stirring rod until small dense fragments were obtained. […] Semi-thin and ultra-thin slices were prepared on the LKB-III ultratome (Sweden). The semi-thin slices were stained with Methylene or Toluidine blue, ultra-thin slices were stained with an aqueous solution of uranyl acetate and lead citrate.

[4] = system: M-6 melanoma; assay: Melanin genesis intensity in M-6 melanoma cells (electronic microscopy); assay type: in vivo, human; conditions: for Average amount of melanosomes per a cell / MGII / Number of cells with melanosomes (per 500 cells): 1.0 mg/kg daily
Method: The study was conducted on 10-12 week old thymus free (nude) female Balb/C mice weighing 20-22 grams (breeding of the Russian Cancer Research Center (RCRC) named after N. N. Blokhin of the Russian Academy of Medical Sciences (RAMS)). A human melanoma strain earlier obtained from primary clinical material was taken from the bank of tumor strains of the RCRC of the RAMS for transplantation to thymus free “nude” mice. Tumor was disintegrated by Versen solution with vital Trypan blue staining and inoculated subcutaneously to mice in the amount of 1.6 million cells per mouse.
Dicarbamine was administered to mice intragastrically using a metal probe daily at dose 1.0 mg/kg beginning 4 days before the tumor inoculation and thereafter for 10-11 days (administration course up to 15 days). The mice were sacrificed with ether anesthesia in 12, 24 and 48 hours after the last administration.
The effect of Dicarbamine on melanoma cell differentiation was assessed on the basis of the intensity of melanin genesis by counting the number of cells with melanin in the tumor slices. With this goal, tumors were excised from the mice, placed into glutaraldehyde and histologically processed for electronic microscopy. The Melanin Genesis Intensity Index (MGII), which reflects the degree of cell differentiation, was calculated in the prepared slices according to the following equation: MGII=NCM×NM,
wherein: NCM is the number of cells containing melanosomes;
NM is average number of melanosomes per a cell.

[5] = vs chemotherapy without Dicarbamine

O=C(O)CCCC(=O)NCCc1c[nH]cn1 [Dicarbamine]
Leukopenia ([1]; WHO degree 0): 7.7%
Leukopenia, number ([1]; WHO degree 0): 6
Neutropenia ([1]; WHO degree 0): 31.3%
Neutropenia, number ([1]; WHO degree 0): 21
Thrombocytopenia ([1]; WHO degree 0): 35.5%
Thrombocytopenia, number ([1]; WHO degree 0): 27
Leukopenia ([1]; WHO degree I): 23.3%
Leukopenia, number ([1]; WHO degree I): 18
Neutropenia ([1]; WHO degree I): 17.9%
Neutropenia, number ([1]; WHO degree I): 12
Thrombocytopenia ([1]; WHO degree I): 42.1%
Thrombocytopenia, number ([1]; WHO degree I): 32
Leukopenia ([1]; WHO degree II): 55.8%
Leukopenia, number ([1]; WHO degree II): 43
Neutropenia ([1]; WHO degree II): 34.3%
Neutropenia, number ([1]; WHO degree II): 23
Thrombocytopenia ([1]; WHO degree II): 13.1%
Thrombocytopenia, number ([1]; WHO degree II): 10
Leukopenia ([1]; WHO degree III): 12.9%
Leukopenia, number ([1]; WHO degree III): 10
Neutropenia ([1]; WHO degree III): 7.4%
Neutropenia, number ([1]; WHO degree III): 5
Thrombocytopenia ([1]; WHO degree III): 7.8%
Thrombocytopenia, number ([1]; WHO degree III): 6
Leukopenia ([1]; WHO degree III + IV): 12.9%
Leukopenia, number ([1]; WHO degree III + IV): 10
Neutropenia ([1]; WHO degree III + IV): 16.4%
Neutropenia, number ([1]; WHO degree III + IV): 11
Thrombocytopenia ([1]; WHO degree III + IV): 9.1%
Thrombocytopenia, number ([1]; WHO degree III + IV): 7
Leukopenia, number ([1]; WHO degree IV): 0
Neutropenia ([1]; WHO degree IV): 8.9%
Neutropenia, number ([1]; WHO degree IV): 6
Thrombocytopenia ([1]; WHO degree IV): 1.3%
Thrombocytopenia, number ([1]; WHO degree IV): 1
decrease of hematological toxicity on the basis of leukopenia [1, 5]: 1.8 fold
decrease of hematological toxicity on the basis of neutropenia [1, 5]: 2.6 fold
decrease of hematological toxicity on the basis of thrombocytopenia [1, 5]: 2.2 fold
increase of number of cells synthesizing melanin vs control [2]: 3 fold
Number of cells with melanin ([2]; individual tumors 1-7): 95 (2×) and 110 and 130 and 106 and 111 (2×)
Terms of death (CPH 50 + Cysplatin 2 mg/kg): no
Total leukocyte number (CPH 50 + Cysplatin 2 mg/kg, day 0): 11.30 ± 2.30 thousand in mm^3
Total leukocyte number (CPH 50 + Cysplatin 2 mg/kg, day 3): 6.70 ± 1.15 thousand in mm^3
Total leukocyte number (CPH 50 + Cysplatin 2 mg/kg, day 5): 17.00 ± 5.17 thousand in mm^3
Total leukocyte number (CPH 50 + Cysplatin 2 mg/kg, day 7): 14.50 ± 2.00 thousand in mm^3
Total leukocyte number (CPH 50 + Cysplatin 2 mg/kg, day 21): 12.40 ± 0.99 thousand in mm^3
Terms of death (CPH 100 + Cysplatin 4 mg/kg): no
Total leukocyte number (CPH 100 + Cysplatin 4 mg/kg, day 0): 11.30 ± 2.30 thousand in mm^3
Total leukocyte number (CPH 100 + Cysplatin 4 mg/kg, day 3): 4.14 ± 0.60 thousand in mm^3
Total leukocyte number (CPH 100 + Cysplatin 4 mg/kg, day 5): 11.40 ± 1.10 thousand in mm^3
Total leukocyte number (CPH 100 + Cysplatin 4 mg/kg, day 7): 14.90 ± 1.32 thousand in mm^3
Total leukocyte number (CPH 100 + Cysplatin 4 mg/kg, day 21): 11.80 ± 1.32 thousand in mm^3
Total leukocyte number (CPH 200 + Cysplatin 8 mg/kg i.p. once (Dicarbamine group: 0.5 mg/kg daily 20 days), day 0): 11.30 ± 2.30 thousand in mm^3
Total leukocyte number (CPH 200 + Cysplatin 8 mg/kg, day 3): 2.32 ± 0.49 thousand in mm^3
Total leukocyte number (CPH 200 + Cysplatin 8 mg/kg, day 5): 6.60 ± 0.90 thousand in mm^3
Total leukocyte number (CPH 200 + Cysplatin 8 mg/kg, day 7): 10.40 ± 1.54 thousand in mm^3
Total leukocyte number (mouse, in vivo): 12.30 ± 1.56 thousand in mm^3
cells with apoptosis signs in bone marrow puncture biopsies [3]: rarely observed
Average amount of melanosomes per a cell ([4]; 12 hours since withdrawal): 28.0
MGII ([4]; 12 hours since withdrawal): 9.8
Number of cells with melanosomes (per 500 cells) ([4]; 12 hours since withdrawal): 175.0
Average amount of melanosomes per a cell ([4]; 24 hours since withdrawal): 35.0
MGII ([4]; 24 hours since withdrawal): 14.7
Number of cells with melanosomes (per 500 cells) ([4]; 24 hours since withdrawal): 210.0
Average amount of melanosomes per a cell ([4]; 48 hours since withdrawal): 42.0
MGII ([4]; 48 hours since withdrawal): 19.0
Number of cells with melanosomes (per 500 cells) ([4]; 48 hours since withdrawal): 227.0
average increase of M-6 melanoma tumor cell differentiation degree (MGII) ([4]; following a 15 day course): 2.2 fold
increase in the number of cells comprising melanosomes ([4]; following a 15 day course): 1.3 fold
increase in the number of melanosomes ([4]; following a 15 day course): 1.3 fold
MGII index increase vs control ([4]; in 12 hours): 1.9 fold
MGII index increase vs control ([4]; in 24 hours): 2.4 fold
MGII index increase vs control ([4]; in 48 hours): 2.3 fold
